Test results published in patent publication US20110294794A1, “TREATMENT OF PROTEINOPATHIES USING A FARNESYL TRANSFERASE INHIBITOR” (Link Medicine Corporation, priority 2008, published 2011).
Entries after “also recorded” stand apart in the source; their conditions may differ.

Experiments:
Atg1 = assay: mRNA levels of autophagy-related genes (Atg1) in SH-SY5Y cells; type: cell-based, human; conditions: 100 nM (FIG. 8d)
Protocol: Quantitative real-time PCR: Gene expression profiles were done by qPCR on series of known autophagy genes. RNA was extracted with Tri-reagent (Sigma), and cDNAs generated using iScript (Biorad). qPCR analysis was carried out in a 96 well plate using an iCycler (BioRad, Hercules, Calif.), and iQ SYBR Green Supermix (Biorad) according to the manufacturer's specifications.
The mechanism of autophagy stimulation by LNK-754-TS appears distinct from that of the drug rapamycin. Rapamycin is a well-characterized autophagy stimulator that acts through inhibition of mTOR, a kinase involved in nutrient signaling and regulation of cell growth and survival. […] To further contrast the mechanism of autophagy stimulation by LNK-754-TS to that of rapamycin, a collection of mRNA transcripts of autophagy proteins were measured (FIG. 8d). Selected mRNAs from untreated SH-SY5Y cells were compared to mRNAs from cells treated with LNK-754-TS (100 nM), tipifarnib (100 nM), or rapamycin (1 μM).

Aβ = Aβ pathology in APP/PS1 transgenic mice (6E10, Thioflavin-S, ELISA); type: in vivo, mouse; conditions: 0.9 mg/kg once every 24 hr, two months
Source text: Immunohistochemistry and quantification of stained cells: For evaluation of α-synuclein immunoreactivity (IR), 5 sagittal cryo-cut sections (10 μm slice thickness) from five different layers were used for counting of IR cells in the cortex and hippocampus. Brain sections were stained with a monoclonal human α-synuclein specific antibody (Alexis®; Cat# 804-258-L001; dilution 1:5), followed by a secondary Ab Cy 2-Goat Anti-Rat (Jackson ImmunoResearch®; dilution 1:200). IR positive cells were quantified using specialized image analysis software (Image Pro Plus, version 4.5.1.29). […] Images were evaluated with ImageProPlus (version 6.2) image analysis software. For APP/PS1 transgenic animals sagittal hemisections (40 μm) were collected and processed for Aβ immunohistochemistry using an 6E10 antibody, Thioflavin-S staining Primary antibodies were detected by the ABC method.
ELISA quantification of α-Synuclein in the α-Synuclein transgenic animals: Brain homogenate was centrifuged and the supernatant saved as fraction F1. […] Raw absorbance (405 nm) was then normalized to the total protein concentration of each sample. […] To quantify the amount of human Aβ-40 and Aβ-42, ELISA kits were used (The Genetics Company, Zurich, Switzerland). […]

[1] = test system: 3T3 H-ras (61L) xenograft tumor; conditions: continuous infusion, cited from earlier work

## C#Cc1cccc(-c2cc(=O)n(C)c3ccc([C@](O)(c4ccc(Cl)cc4)c4cncn4C)cc23)c1 [LNK-754-TS, (R)-6-[(4-chlorophenyl)-hydroxyl-(1-methyl-1-H-imidazol-5-yl)-methyl]-4-(3-ethynylphenyl)-1-methyl-2-(1H)-quinonlinone (2S,3S)-dihydroxybutanedioate]
Atg1
  mRNA levels of a set of autophagy-related genes: unaffected
Aβ
  levels of Aβ40/Aβ42 extracted from whole brain fractions (Elisa): no statistically significant changes
  number of Aβ (6E10) immunoreactive plaques in the subiculum vs. vehicle: lesser, but still significant, effect; also recorded: significant decrease
[1]; 7 day treatment
  continuous serum level at which significant inhibition of tumor growth was seen: above 100 ng/mL
[1]; tumor tissue
  inhibition of Ras farnesylation at which significant inhibition of tumor growth was seen: ≥ 50%
